Results reported in ChEMBL document CHEMBL6114943, “Engineered Cyclotide Blocks Neuronal Excitotoxicity” (J Med Chem, 2025).
The source made the active and inactive calls. The calls are words filed in the database; no cut-off is given here. Where a SMILES comes first, the peptide text is derived from it. Bridges are numbered along the chain shown (N, C = ends).

What was measured:
[1] = Stability in C57BL/6 mouse plasma assessed as drug degradation at 100 uM measured < 15 mins in presence of alteplase by HPLC analysis; type: ADME, cell-free; conditions: 0.25 h
[2] = Stability in C57BL/6 mouse plasma assessed as half life at 100 uM incubated for 300 min by HPLC analysis; type: ADME, cell-free
[3] = Stability in C57BL/6 mouse plasma assessed as parent compound remaining at 100 uM measured after 5 hrs by HPLC analysis relative to control; type: ADME, cell-free; conditions: read-out: Stability
[4] = Stability in C57BL/6 mouse plasma assessed as drug degradation at 100 uM measured after 5 hrs in presence of alteplase by HPLC analysis; type: ADME, cell-free
[5] = Stability in C57BL/6 mouse plasma assessed as parent compound remaining at 100 uM measured after 24 hrs in presence of alteplase by HPLC analysis relative to control; type: ADME, cell-free; conditions: read-out: Stability
[6] = Stability in C57BL/6 mouse plasma assessed as parent compound remaining at 100 uM measured after 24 hrs by HPLC analysis; type: ADME, cell-free; conditions: read-out: Stability
[7] = Stability in C57BL/6 mouse plasma assessed as drug degradation by measuring parent compound remaining at 100 uM measured after 5 hrs in presence of alteplase by HPLC analysis relative to control; type: ADME, cell-free; conditions: read-out: Stability
[8] = Stability in C57BL/6 mouse plasma assessed as drug degradation by measuring parent compound remaining at 100 uM measured after 5 hrs by HPLC analysis relative to control; type: ADME, cell-free; conditions: read-out: Stability
Mus musculus [9] = experiment: Neuroprotective activity against pilocarpine-induced seizure in C57BL6 mouse assessed as survival rate at 3 nmol/g, iv pretreated with compound for 1 hrs followed by pilocarpine induction and measured after 2 hrs relative to control; type: functional; conditions: time 3 hrs
Neuron [10] = experiment: Neuroprotective activity against NMDA-induced cell death in mouse primary neuron assessed as reduction in cell viability preincubated with compound for 1 hrs followed by NMDA addition and measured after 1 hrs by PI staining based analysis relative to control; type: functional; conditions: time 2.0 hrs
Neuron [11] = experiment: Cytotoxicity against mouse primary neuron upto 1 uM incubated for 24 hrs; type: toxicity, cell-based
[12] = Drug uptake in mouse Primary neuron at 500 nM incubated for 60 mins by inverted confocal microscopic analysis relative to control; type: ADME, cell-based; conditions: 1 h, 0.5 µM
[13] = Drug uptake in mouse Primary neuron at 100 nM incubated for 60 mins by inverted confocal microscopic analysis relative to control; type: ADME, cell-based; conditions: 1 h, 0.1 µM
[14] = Drug uptake in mouse Primary neuron at 100 nM measured at 60 mins by inverted confocal microscopic analysis; type: ADME, cell-based; conditions: 1 h, 0.1 µM
Neuron [15] = experiment: Neuroprotective activity against Amyloid beta-induced cell death in mouse primary neuron assessed as cell viability preincubated with compound for 1 hrs followed by Amyloid beta addition and measured after 1 hrs by PI staining based analysis relative to control; type: functional; conditions: time 2 hrs
Neuron [16] = experiment: Neuroprotective activity against NMDA-induced cell death in mouse primary neuron assessed as cell viability preincubated with compound for 1 hrs followed by NMDA addition and measured after 1 hrs by PI staining based analysis relative to control; type: functional; conditions: time 2 hrs
[17] = Toxicity in C57BL/6 mouse assessed as histological changes in kidney at 3 nmol/g, iv administered 3 consecutive days by H and E staining based analysis; type: organism-based; conditions: in vivo
[18] = Toxicity in C57BL/6 mouse assessed as histological changes in spleen at 3 nmol/g, iv administered 3 consecutive days by H and E staining based analysis; type: organism-based; conditions: in vivo
[19] = Toxicity in C57BL/6 mouse assessed as histological changes in liver at 3 nmol/g, iv administered 3 consecutive days by H and E staining based analysis; type: organism-based; conditions: in vivo
Disks large homolog 4 = Disks large homolog 4 (Homo sapiens, UniProt P78352); experiment: Binding affinity to PSD-95 (unknown origin) assessed as binding constant (Kd) by MST analysis
Sequence of Disks large homolog 4 (P78352 whole entry): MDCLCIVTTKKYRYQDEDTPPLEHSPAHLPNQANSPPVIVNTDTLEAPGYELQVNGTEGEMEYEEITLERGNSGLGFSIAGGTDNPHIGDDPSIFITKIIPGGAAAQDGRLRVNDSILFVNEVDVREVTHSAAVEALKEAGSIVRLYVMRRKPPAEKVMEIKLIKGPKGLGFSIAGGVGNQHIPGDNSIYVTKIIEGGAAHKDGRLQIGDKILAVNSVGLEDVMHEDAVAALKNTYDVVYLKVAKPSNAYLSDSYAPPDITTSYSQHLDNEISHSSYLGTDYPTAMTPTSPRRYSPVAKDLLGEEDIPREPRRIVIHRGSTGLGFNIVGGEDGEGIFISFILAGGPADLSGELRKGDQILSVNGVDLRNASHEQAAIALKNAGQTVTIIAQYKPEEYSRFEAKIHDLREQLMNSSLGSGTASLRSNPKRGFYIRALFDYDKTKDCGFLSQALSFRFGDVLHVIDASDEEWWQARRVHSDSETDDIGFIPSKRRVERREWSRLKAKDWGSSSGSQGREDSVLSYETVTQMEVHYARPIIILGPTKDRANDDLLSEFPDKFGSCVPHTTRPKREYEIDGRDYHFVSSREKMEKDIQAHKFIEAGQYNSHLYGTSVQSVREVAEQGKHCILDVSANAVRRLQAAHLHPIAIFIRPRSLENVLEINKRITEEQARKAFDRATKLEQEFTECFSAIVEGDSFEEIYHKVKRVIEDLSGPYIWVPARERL

[20] = Toxicity in C57BL/6 mouse assessed as histological changes in lung at 3 nmol/g, iv administered 3 consecutive days by H and E staining based analysis; type: organism-based; conditions: in vivo
Neuron [21] = experiment: Neuroprotective activity against Amyloid beta-induced cell death in mouse primary neuron assessed as cell viability at 100 nM preincubated with compound for 1 hrs followed by Amyloid beta addition and measured after 1 hrs by PI staining based analysis; type: functional; conditions: time 2.0 hrs
Mus musculus [22] = experiment: Neuroprotective activity against pilocarpine-induced seizure in C57BL6 mouse assessed as survival rate at 30 nmol/g, po pretreated with compound for 1 hrs followed by pilocarpine induction and measured after 2 hrs relative to control; type: functional; conditions: time 3 hrs
Neuron [23] = experiment: Neuroprotective activity against NMDA-induced cell death in mouse primary neuron assessed as reduction in cell viability at 100 nM preincubated with compound for 1 hrs followed by NMDA addition and measured after 1 hrs by PI staining based analysis (reference value: 60.01 +/- 4%); type: functional; conditions: time 2 hrs

CC[C@H](C)[C@H](NC(=O)[C@H](CO)NC(=O)[C@H](CO)NC(=O)[C@H](CC(C)C)NC(=O)[C@H](CCCCN)NC(=O)[C@H](CCCNC(=N)N)NC(=O)[C@H](CCCNC(=N)N)NC(=O)[C@H](CCCNC(=N)N)NC(=O)[C@H](CCC(N)=O)NC(=O)[C@H](CCCNC(=N)N)NC(=O)[C@H](CCCNC(=N)N)NC(=O)[C@H](CCCCN)NC(=O)[C@H](CCCCN)NC(=O)[C@H](CCCNC(=N)N)NC(=O)CNC(=O)[C@H](Cc1ccc(O)cc1)NC(=O)c1ccc(C(=O)[O-])cc1-c1c2ccc(=[N+](C)C)cc-2oc2cc(N(C)C)ccc12)C(=O)N[C@@H](CCC(=O)O)C(=O)N[C@@H](CO)C(=O)N[C@@H](CC(=O)O)C(=O)N[C@H](C(=O)O)C(C)C
Stability [1]: Unstable | half-life at 100 µM [2]: ~45 min | remaining at 5 h, 100 µM [3]: 9%

CC[C@@H](C)[C@@H](NC(=O)[C@@H](CO)NC(=O)[C@@H](CO)NC(=O)[C@@H](CC(C)C)NC(=O)[C@@H](CCCCN)NC(=O)[C@@H](CCCNC(=N)N)NC(=O)[C@@H](CCCNC(=N)N)NC(=O)[C@@H](CCCNC(=N)N)NC(=O)[C@@H](CCC(N)=O)NC(=O)[C@@H](CCCNC(=N)N)NC(=O)[C@@H](CCCNC(=N)N)NC(=O)[C@@H](CCCCN)NC(=O)[C@@H](CCCCN)NC(=O)[C@@H](CCCNC(=N)N)NC(=O)CNC(=O)[C@@H](Cc1ccc(O)cc1)NC(=O)c1ccc(C(=O)[O-])cc1-c1c2ccc(=[N+](C)C)cc-2oc2cc(N(C)C)ccc12)C(=O)N[C@H](CCC(=O)O)C(=O)N[C@H](CO)C(=O)N[C@H](CC(=O)O)C(=O)N[C@@H](C(=O)O)C(C)C
Stability [4]: Unstable | remaining at 24 h, 100 µM [5]: 80% | remaining at 24 h, 100 µM [6]: 80% | remaining at 5 h, 100 µM [7]: 82% | remaining at 5 h, 100 µM [8]: 85%

CC[C@H](C)[C@@H]1NC(=O)[C@H](CO)NC(=O)[C@H](CO)NC(=O)[C@H](CC(C)C)NC(=O)[C@H](CCCCN)NC(=O)[C@@H]2CSSC[C@@H]3NC(=O)[C@H](CC(=O)O)NC(=O)[C@H](CO)NC(=O)[C@H](CC(=O)O)NC(=O)[C@H](CCCNC(=N)N)NC(=O)[C@H](CCCNC(=N)N)NC(=O)[C@@H]4CSSC[C@H](NC(=O)[C@H]([C@@H](C)CC)NC(=O)[C@H](CSSC[C@H](NC(=O)[C@H](C)NC(=O)[C@H](CC(=O)O)NC(=O)[C@H](C)NC(=O)[C@H](CCC(=O)O)NC1=O)C(=O)N1CCC[C@H]1C(=O)N[C@@H](CCCNC(=N)N)C(=O)N[C@@H]([C@@H](C)CC)C(=O)N[C@@H](CC(C)C)C(=O)N[C@@H](CCCNC(=N)N)C(=O)N[C@@H](CCCNC(=N)N)C(=O)N[C@@H](CCCNC(=N)N)C(=O)N[C@@H](CCCNC(=N)N)C(=O)N4)NC(=O)[C@H](C)NC(=O)CNC(=O)[C@@H]1CCCN1C3=O)C(=O)N[C@@H](CCCNC(=N)N)C(=O)NCC(=O)N[C@@H](CC(N)=O)C(=O)NCC(=O)N[C@@H](Cc1ccc(O)cc1)C(=O)N2 (cyclo(ACICRGNGYCKLSSIEADACPRILRRRRCRRDSDCPG); disulfide 2-20, 4-29, 10-35)
Survival (Mus musculus [9]): 30% | Activity (Neuron [10]): inactive | Activity (Neuron [11]): Non-toxic

CC[C@H](C)[C@@H]1NC(=O)[C@@H]2CSSC[C@@H]3NC(=O)[C@H](C(C)C)NC(=O)[C@H](CC(=O)O)NC(=O)[C@H](CO)NC(=O)[C@H](CCC(=O)O)NC(=O)[C@H]([C@@H](C)CC)NC(=O)[C@H](CO)NC(=O)[C@H](CO)NC(=O)[C@H](CC(C)C)NC(=O)[C@H](CCCCN)NC(=O)[C@@H]4CSSC[C@H](NC(=O)[C@H](CC(=O)O)NC(=O)[C@H](CO)NC(=O)[C@H](CC(=O)O)NC(=O)[C@H](CCCNC(=N)N)NC(=O)[C@H](CCCNC(=N)N)NC(=O)[C@H](CSSC[C@H](NC1=O)C(=O)N[C@@H](CCCNC(=N)N)C(=O)NCC(=O)N[C@@H](CC(N)=O)C(=O)NCC(=O)N[C@@H](Cc1ccc(O)cc1)C(=O)N4)NC(=O)[C@H](CCCCN)NC(=O)[C@H](CCCCN)NC(=O)[C@H](CC(C)C)NC(=O)[C@H]([C@@H](C)CC)NC(=O)[C@H](CCCCN)NC(=O)[C@@H]1CCCN1C3=O)C(=O)N1CCC[C@H]1C(=O)NCC(=O)N[C@@H](C)C(=O)N2 (cyclo(ACICRGNGYCKLSSIESDVCPKILKKCRRDSDCPG); disulfide 2-20, 4-27, 10-33) [listing 1 of 2 here]
Drug uptake [12]: 70.6% | Drug uptake [13]: Not_active | Drug uptake [14]: Active | Activity (Neuron [11]): Non-toxic

CC[C@H](C)[C@@H]1NC(=O)[C@@H]2CSSC[C@@H]3NC(=O)[C@H](C(C)C)NC(=O)[C@H](CC(=O)O)NC(=O)[C@H](CO)NC(=O)[C@H](CCC(=O)O)NC(=O)[C@H]([C@@H](C)CC)NC(=O)[C@H](CO)NC(=O)[C@H](CO)NC(=O)[C@H](CC(C)C)NC(=O)[C@H](CCCCN)NC(=O)[C@@H]4CSSC[C@H](NC(=O)[C@H](CC(=O)O)NC(=O)[C@H](CO)NC(=O)[C@H](CC(=O)O)NC(=O)[C@H](CCCNC(=N)N)NC(=O)[C@H](CCCNC(=N)N)NC(=O)[C@H](CSSC[C@H](NC1=O)C(=O)N[C@@H](CCCNC(=N)N)C(=O)NCC(=O)N[C@@H](CC(N)=O)C(=O)NCC(=O)N[C@@H](Cc1ccc(O)cc1)C(=O)N4)NC(=O)[C@H](CCCCN)NC(=O)[C@H](CCCCN)NC(=O)[C@H](CC(C)C)NC(=O)[C@H]([C@@H](C)CC)NC(=O)[C@H](CCCCN)NC(=O)[C@@H]1CCCN1C3=O)C(=O)N1CCC[C@H]1C(=O)NCC(=O)N[C@@H](C)C(=O)N2 (cyclo(ACICRGNGYCKLSSIESDVCPKILKKCRRDSDCPG); disulfide 2-20, 4-27, 10-33) [listing 2 of 2 here]
Activity (Neuron [15]): 32.6% | Activity (Neuron [16]): 31.8%

CC[C@H](C)[C@H](NC(=O)[C@H](CO)NC(=O)[C@H](CO)NC(=O)[C@H](CC(C)C)NC(=O)[C@H](CCCCN)NC(=O)[C@H](CCCN=C(N)N)NC(=O)[C@H](CCCN=C(N)N)NC(=O)[C@H](CCCN=C(N)N)NC(=O)[C@H](CCC(N)=O)NC(=O)[C@H](CCCN=C(N)N)NC(=O)[C@H](CCCN=C(N)N)NC(=O)[C@H](CCCCN)NC(=O)[C@H](CCCCN)NC(=O)[C@H](CCCN=C(N)N)NC(=O)CNC(=O)[C@@H](N)Cc1ccc(O)cc1)C(=O)N[C@@H](CCC(=O)O)C(=O)N[C@@H](CO)C(=O)N[C@@H](CC(=O)O)C(=O)N[C@H](C(=O)O)C(C)C [NERINETIDE]
Activity [17]: Non-toxic | Activity [18]: Non-toxic | Activity [19]: Non-toxic | Kd (Disks large homolog 4): 1.2 µM | Activity (Neuron [11]): Non-toxic | Activity [20]: Non-toxic

CC[C@H](C)[C@H](NC(=O)[C@H](CO)NC(=O)[C@H](CO)NC(=O)[C@H](CC(C)C)NC(=O)[C@H](CCCCN)NC(=O)[C@H](CCCNC(=N)N)NC(=O)[C@H](CCCNC(=N)N)NC(=O)[C@H](CCCNC(=N)N)NC(=O)[C@H](CCC(N)=O)NC(=O)[C@H](CCCNC(=N)N)NC(=O)[C@H](CCCNC(=N)N)NC(=O)[C@H](CCCCN)NC(=O)[C@H](CCCCN)NC(=O)[C@H](CCCNC(=N)N)NC(=O)CNC(=O)[C@@H](N)Cc1ccc(O)cc1)C(=O)N[C@@H](CCC(=O)O)C(=O)N[C@@H](CO)C(=O)N[C@@H](CC(=O)O)C(=O)N[C@H](C(=O)O)C(C)C [NERINETIDE]
Survival (Mus musculus [9]): 85% | Activity (Neuron [21]): Active | Survival (Mus musculus [22]): 50% | Activity (Neuron [23]): 13.12%
